pIC50: −log10 of the molar value.
Target: T1, MCR-1 (Homo sapiens, UniProt Q01726)
T1 construct: expressed in transfected cells; host or cells: HEK 293
Assay: Melanocortin receptor binding assay, competition with 125I-HP 467, HEK 293 cells expressing hMCR-1
Settings: for % Disp. of 125I-HP 467 (first of duplicate) / % Disp. of 125I-HP 467 (second of duplicate): 10 μM isoquinoline compound; for % Disp. of 125I-HP 467 (first of duplicate): HEK 293 cells expressing MCR-1, duplicate 1; for % Disp. of 125I-HP 467 (second of duplicate): HEK 293 cells expressing MCR-1, duplicate 2; for pIC50: competition with 125I-HP 467, HEK 293 cells expressing MCR-1, read-out: MC-1 IC50; for effectiveness as MC receptor ligand: binding to MC receptors, Table 1
Summary of the method: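 Test compounds compete on intact HEK 293 cells carrying hMCR-1 (2×10^4 per tube) or hMCR-4 (4×10^3 per tube), suspended in PBS, 10% calf serum, 1 mM CaCl2.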

T1 sequence (Q01726 whole entry): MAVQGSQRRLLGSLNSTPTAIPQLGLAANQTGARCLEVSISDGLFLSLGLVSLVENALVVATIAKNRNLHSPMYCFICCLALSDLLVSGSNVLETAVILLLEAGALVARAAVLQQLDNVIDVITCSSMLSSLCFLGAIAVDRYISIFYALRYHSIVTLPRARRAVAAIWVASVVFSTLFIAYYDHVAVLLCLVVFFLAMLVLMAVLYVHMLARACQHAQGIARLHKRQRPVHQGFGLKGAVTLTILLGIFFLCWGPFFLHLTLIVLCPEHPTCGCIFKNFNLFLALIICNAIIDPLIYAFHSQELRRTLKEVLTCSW

Structure (SMILES)	pIC50	also measured
CNC(CN)CCCCN1Cc2ccccc2C(CNC2CCCCC2)C1c1ccnc2ccccc12 (stereo not drawn) [TRG 2405-255]	–	% Disp. of 125I-HP 467 (first of duplicate): 29.2%; % Disp. of 125I-HP 467 (second of duplicate): 25.3%
CNC(CN)CCCCN1Cc2ccccc2C(CNC2CCCCC2)C1c1ccc(C)s1 (stereo not drawn) [TRG 2405-258]	–	% Disp. of 125I-HP 467 (first of duplicate): 80.7%; % Disp. of 125I-HP 467 (second of duplicate): 81.9%
CNC(CN)CCCCN1Cc2ccccc2C(CNC2CCCCC2)C1c1ccc(C)o1 (stereo not drawn) [TRG 2405-259]	–	% Disp. of 125I-HP 467 (first of duplicate): 42.5%; % Disp. of 125I-HP 467 (second of duplicate): 46.1%
CNC(CN)CCCCN1Cc2ccccc2C(CNC2CCCCC2)C1c1cccc(C)n1 (stereo not drawn) [TRG 2405-261]	–	% Disp. of 125I-HP 467 (first of duplicate): 45.9%; % Disp. of 125I-HP 467 (second of duplicate): 47.8%
CCn1c2ccccc2c2cc(C3C(CNC4CCCCC4)c4ccccc4CN3CCCCC(CN)NC)ccc21 (stereo not drawn) [TRG 2405-263]	–	% Disp. of 125I-HP 467 (first of duplicate): 61.6%; % Disp. of 125I-HP 467 (second of duplicate): 65.3%
CNC(CN)CCCCN1Cc2ccccc2C(CNC2CCCCC2)C1c1cc2c3c(c1O)CCCN3CCC2 (stereo not drawn) [TRG 2405-264]	–	% Disp. of 125I-HP 467 (first of duplicate): 35%; % Disp. of 125I-HP 467 (second of duplicate): 39.4%
CNC(CN)CCCCN1Cc2ccccc2C(CNC2CCCCC2)C1c1ccc(Br)o1 (stereo not drawn) [TRG 2405-269]	–	% Disp. of 125I-HP 467 (first of duplicate): 55.9%; % Disp. of 125I-HP 467 (second of duplicate): 57.7%
CNC(CN)CCCCN1Cc2ccccc2C(CNC2CCCCC2)C1c1nccs1 (stereo not drawn) [TRG 2405-270]	–	% Disp. of 125I-HP 467 (first of duplicate): 41.1%; % Disp. of 125I-HP 467 (second of duplicate): 33.7%
CCCCNc1ccc(C2C(CN)c3ccccc3CN2CCCC(CN)NCCc2ccc3ccccc3c2)cc1 (stereo not drawn) [TRG 2409-227]	6.77	–
NC[C@H](CCCCN1Cc2ccccc2C(CNCCc2ccccc2)C1c1ccc(-c2ccccc2)cc1)NCCc1ccccc1 (stereo partly drawn) [TRG 2411-3]	6.06	–
CNC(C)CNC(CN)CCCCN1Cc2ccccc2C(CNCCc2ccccc2)C1c1ccc(-c2ccccc2)cc1 (stereo not drawn) [TRG 2411-6]	6.33	–
CNC(CNC(CN)CCCCN1Cc2ccccc2C(CNCCc2ccccc2)C1c1ccc(-c2ccccc2)cc1)Cc1ccccc1 (stereo not drawn) [TRG 2411-8]	6.12	–
NCC(CCCCN1Cc2ccccc2C(CNCCc2ccccc2)C1c1ccc(-c2ccccc2)cc1)NCC1CCCCC1 (stereo not drawn) [TRG 2411-12]	6.14	–
NCC(CCCCN1Cc2ccccc2C(CNC2CCCCC2)C1c1ccc(-c2ccccc2)cc1)NCCO (stereo not drawn) [TRG 2411-16]	6.05	–
NCC(N)CCCCN1Cc2ccccc2C(CN)C1c1ccc(-c2ccccc2)cc1 (stereo not drawn) [TRG 2411-23]	6.23	–
CCNc1ccc(C2C(CNCCc3ccccc3)c3ccccc3CN2CCCCC(CN)NCCC2CCCCC2)cc1 (stereo not drawn) [TRG 2411-47]	6.66	–
CCNc1ccc(C2C(CNCCc3ccccc3)c3ccccc3CN2CCCCC(CN)NCCN)cc1 (stereo not drawn) [TRG 2411-48]	6.52	–
CCCCNC(CN)CCCCN1Cc2ccccc2C(CNC2CCCCC2)C1c1ccc(NCC)cc1 (stereo not drawn) [TRG 2411-50]	7.10	effectiveness as MC receptor ligand: particularly effective MC receptor ligands
CCCCNC(CN)CCCCN1Cc2ccccc2C(CN)C1c1ccc(NCC)cc1 (stereo not drawn) [TRG 2411-61]	6.96	–

Structure (SMILES)	pIC50	also measured
CCNc1ccc(C2C(CN)c3ccccc3CN2CCCCC(CN)NCCc2ccc(OC)cc2)cc1 (stereo not drawn) [TRG 2411-65]	6.41	–
CCNc1ccc(C2C(CN)c3ccccc3CN2CCCCC(CN)NCc2ccccc2)cc1 (stereo not drawn) [TRG 2411-66]	6.96	–
CCNc1ccc(C2C(CN)c3ccccc3CN2CCCCC(CN)NCc2ccc(Cl)cc2)cc1 (stereo not drawn) [TRG 2411-67]	6.68	–
CCNc1ccc(C2C(CN)c3ccccc3CN2CCCCC(CN)NCc2ccc(OC)cc2)cc1 (stereo not drawn) [TRG 2411-68]	6.92	–
CCNc1ccc(C2C(CN)c3ccccc3CN2CCCCC(CN)NCCN)cc1 (stereo not drawn) [TRG 2411-71]	6.41	–
CCCCNc1ccc(C2C(CNCCc3ccccc3)c3ccccc3CN2CCCCC(CN)NC)cc1 (stereo not drawn) [TRG 2411-73]	6.72	–
CCCCNc1ccc(C2C(CNCCc3ccccc3)c3ccccc3CN2CCCCC(CN)NCCN)cc1 (stereo not drawn) [TRG 2411-85]	6.51	–
CCCCNc1ccc(C2C(CNC3CCCCC3)c3ccccc3CN2CCCCC(CN)N2CCCC2)cc1 (stereo not drawn) [TRG 2411-89]	7.22	–
CCCCNc1ccc(C2C(CNC3CCCCC3)c3ccccc3CN2CCCCC(CN)NCCc2ccc(Br)cc2)cc1 (stereo not drawn) [TRG 2411-91]	6.19	–
CCCCNc1ccc(C2C(CNC3CCCCC3)c3ccccc3CN2CCCCC(CN)NCCc2ccc(OC)cc2)cc1 (stereo not drawn) [TRG 2411-92]	6.52	–
CCCCNc1ccc(C2C(CNC3CCCCC3)c3ccccc3CN2CCCCC(CN)NCc2ccccc2)cc1 (stereo not drawn) [TRG 2411-93]	6.89	–
CCCCNc1ccc(C2C(CN)c3ccccc3CN2CCCCC(CN)NCc2ccccc2)cc1 (stereo not drawn) [TRG 2411-107]	6.47	–
NC[C@@H](N)CCCN1Cc2ccccc2C(CNCCc2ccccc2)C1c1ccc(-c2ccccc2)cc1 (stereo partly drawn) [TRG 2411-113]	6.30	–
CNC(CN)CCCN1Cc2ccccc2C(CNCCc2ccccc2)C1c1ccc(-c2ccccc2)cc1 (stereo not drawn) [TRG 2411-114]	6.12	–
CNC(C)CNC(CN)CCCN1Cc2ccccc2C(CNCCc2ccccc2)C1c1ccc(-c2ccccc2)cc1 (stereo not drawn) [TRG 2411-119]	6.43	–
NCC(CCCN1Cc2ccccc2C(CNCCc2ccccc2)C1c1ccc(-c2ccccc2)cc1)NCCO (stereo not drawn) [TRG 2411-120]	5.77	–
CNC(CNC(CN)CCCN1Cc2ccccc2C(CNCCc2ccccc2)C1c1ccc(-c2ccccc2)cc1)Cc1ccccc1 (stereo not drawn) [TRG 2411-121]	5.97	–
COCCNC(CN)CCCN1Cc2ccccc2C(CNCCc2ccccc2)C1c1ccc(-c2ccccc2)cc1 (stereo not drawn) [TRG 2411-123]	5.81	–

Now from value to molecule, other results behind:

pIC50	Structure (SMILES)	also measured
6.92	CCCCNc1ccc(C2C(CN)c3ccccc3CN2CCCC(CN)NCCc2ccc(Br)cc2)cc1 (stereo not drawn) [TRG 2409-222]	–
7.00	CCCCNc1ccc(C2C(CN)c3ccccc3CN2CCCC(CN)NCc2ccc(OC)cc2)cc1 (stereo not drawn) [TRG 2409-226]	–
6.64	CCCCNc1ccc(C2C(CN)c3ccccc3CN2CCCC(CN)NCCN)cc1 (stereo not drawn) [TRG 2409-229]	–
6.26	CCNC(CN)CCCCN1Cc2ccccc2C(CNCCc2ccccc2)C1c1ccc(-c2ccccc2)cc1 (stereo not drawn) [TRG 2411-2]	–
6.15	CNCCNC(CN)CCCCN1Cc2ccccc2C(CNCCc2ccccc2)C1c1ccc(-c2ccccc2)cc1 (stereo not drawn) [TRG 2411-4]	–
6.10	NCCN[C@H](CN)CCCCN1Cc2ccccc2C(CNCCc2ccccc2)C1c1ccc(-c2ccccc2)cc1 (stereo partly drawn) [TRG 2411-5]	–
6.20	NCC(CCCCN1Cc2ccccc2C(CNCCc2ccccc2)C1c1ccc(-c2ccccc2)cc1)NCCO (stereo not drawn) [TRG 2411-7]	–
5.96	COCCNC(CN)CCCCN1Cc2ccccc2C(CNCCc2ccccc2)C1c1ccc(-c2ccccc2)cc1 (stereo not drawn) [TRG 2411-10]	–
5.87	NCC(CCCCN1Cc2ccccc2C(CNCCc2ccccc2)C1c1ccc(-c2ccccc2)cc1)NCc1ccccc1 (stereo not drawn) [TRG 2411-13]	–
6.34	CCNC(CN)CCCCN1Cc2ccccc2C(CNC2CCCCC2)C1c1ccc(-c2ccccc2)cc1 (stereo not drawn) [TRG 2411-14]	–
6.41	CNC(CNC(CN)CCCCN1Cc2ccccc2C(CNC2CCCCC2)C1c1ccc(-c2ccccc2)cc1)Cc1ccccc1 (stereo not drawn) [TRG 2411-17]	–
6.31	COCCNC(CN)CCCCN1Cc2ccccc2C(CNC2CCCCC2)C1c1ccc(-c2ccccc2)cc1 (stereo not drawn) [TRG 2411-19]	–
6.28	CCNC(CN)CCCCN1Cc2ccccc2C(CN)C1c1ccc(-c2ccccc2)cc1 (stereo not drawn) [TRG 2411-24]	–
6.46	NCC(CCCCN1Cc2ccccc2C(CN)C1c1ccc(-c2ccccc2)cc1)NCCc1ccccc1 (stereo not drawn) [TRG 2411-25]	–
6.18	NCCNC(CN)CCCCN1Cc2ccccc2C(CN)C1c1ccc(-c2ccccc2)cc1 (stereo not drawn) [TRG 2411-27]	–
6.01	NCC1c2ccccc2CN(CCCCC(CN)N2CCCC2)C1c1ccc(-c2ccccc2)cc1 (stereo not drawn) [TRG 2411-31]	–
6.26	COCCNC(CN)CCCCN1Cc2ccccc2C(CN)C1c1ccc(-c2ccccc2)cc1 (stereo not drawn) [TRG 2411-32]	–

pIC50	Structure (SMILES)	also measured
6.46	NCC(CCCCN1Cc2ccccc2C(CN)C1c1ccc(-c2ccccc2)cc1)NCC1CCCCC1 (stereo not drawn) [TRG 2411-34]	–
6.89	CCNc1ccc(C2C(CNCCc3ccccc3)c3ccccc3CN2CCCCC(N)CN)cc1 (stereo not drawn) [TRG 2411-36]	–
6.89	CCNc1ccc(C2C(CNCCc3ccccc3)c3ccccc3CN2CCCCC(CN)NCC)cc1 (stereo not drawn) [TRG 2411-37]	–
6.66	CCNc1ccc(C2C(CNC3CCCCC3)c3ccccc3CN2CCCCC(CN)NCC)cc1 (stereo not drawn) [TRG 2411-49]	–
6.89	CCNc1ccc(C2C(CNC3CCCCC3)c3ccccc3CN2CCCCC(CN)NCc2ccc(OC)cc2)cc1 (stereo not drawn) [TRG 2411-56]	–
6.43	CCNc1ccc(C2C(CN)c3ccccc3CN2CCCCC(N)CN)cc1 (stereo not drawn) [TRG 2411-59]	–
7.30	CCNc1ccc(C2C(CN)c3ccccc3CN2CCCCC(CN)NCC)cc1 (stereo not drawn) [TRG 2411-60]	effectiveness as MC receptor ligand: particularly effective MC receptor ligands
6.32	CCNc1ccc(C2C(CN)c3ccccc3CN2CCCC[C@@H](CN)NCCc2ccc(Br)cc2)cc1 (stereo partly drawn) [TRG 2411-64]	–
6.43	CCNc1ccc(C2C(CN)c3ccccc3CN2CCCCC(CN)NCCc2ccc3ccccc3c2)cc1 (stereo not drawn) [TRG 2411-69]	–
6.80	CCNc1ccc(C2C(CN)c3ccccc3CN2CCCCC(CN)NCCC2CCCCC2)cc1 (stereo not drawn) [TRG 2411-70]	–
6.60	CCCCNc1ccc(C2C(CNCCc3ccccc3)c3ccccc3CN2CCCCC(N)CN)cc1 (stereo not drawn) [TRG 2411-72]	–
6.89	CCCCNc1ccc(C2C(CN)c3ccccc3CN2CCCCC(CN)NC)cc1 (stereo not drawn) [TRG 2411-100]	–
7.00	CCCCNc1ccc(C2C(CN)c3ccccc3CN2CCCCC(CN)NCC)cc1 (stereo not drawn) [TRG 2411-101]	–
7.70	CCCCNc1ccc(C2C(CN)c3ccccc3CN2CCCCC(CN)N2CCCC2)cc1 (stereo not drawn) [TRG 2411-103]	–
6.43	CCCCNc1ccc(C2C(CN)c3ccccc3CN2CCCCC(CN)NCCc2ccc(OC)cc2)cc1 (stereo not drawn) [TRG 2411-106]	–
6.01	CNCCNC(CN)CCCN1Cc2ccccc2C(CNCCc2ccccc2)C1c1ccc(-c2ccccc2)cc1 (stereo not drawn) [TRG 2411-117]	–
6.46	NCCNC(CN)CCCN1Cc2ccccc2C(CNCCc2ccccc2)C1c1ccc(-c2ccccc2)cc1 (stereo not drawn) [TRG 2411-118]	–

From patent US6608082B1, “Treatment of erectile dysfunction using isoquinoline compound melanocortin receptor ligands” (Lion Bioscience AG, priority 1998, dated 2003)
